Source: patent US8236854B2, “Lipid-improving agent and composition containing lipid-improving agent” (Suntory Holdings Limited, priority 2003, dated 2012)
Marks after values point to notes of the source that are not given here.

Tests used:
Assay type in all cases: in vivo, rat
Male rats of SD strain [1] = test: Serum lipid lowering action of structured lipids in high-fat food, two weeks (Example 6); settings: High-TG Food (20% fat) with 7.5% structured lipid, 2 weeks
Source text: Influence of arachidonic acid chemically synthesized in Example 2 on serum lipid lowering action of the constituting fatty acid was investigated in a high-fat foods.
Male rats of SD strain of 5 weeks age were divided into eight groups each comprising five rats, acclimatized for one week with a standard solid feed and ingested for two weeks with the experimental food as shown in Table 7 and Table 8 (normal, high-TG, 7.5% PPP, 7.5% PAP, 7.5% PPA, 7.5% 8P8, 7.5% 8A8 and 7.5% 88A). Incidentally, the condition for a high-fat food was that the rate of fat/oil in the feed was made 20%, beef tallow abundant in saturated fatty acid was used as a base and 2% of corn oil were compounded to avoid the deficiency of essential fatty acids. In the control group, an experimental food (high-TG food, 20% fat/oil food) compounded with 18% of […] (20% as a result of addition of 2% of corn oil) was used.

PPARα mRNA of liver = test: Influence of structured lipid on liver PPARα mRNA expression (Example 5); settings: rats, 10% PAP food, 2 weeks
Source text: (§1) Influence of the structured lipid where arachidonic acid chemically synthesized in Example 2 as a constituting fatty acid on expression of lipid metabolism-related gene was investigated using rats.
(§2) Male rats of SD strain of 5 weeks age were divided into four groups each comprising five rats, acclimatized for one week with a standard solid feed and ingested for two weeks with an experimental food (10% PPA and 10% PAP; Table 5) compounded with 10% of arachidonic acid-containing structured lipid (PPA or PAP). In the control group, an experimental food (10% PPP) compounded with 10% of PPP was used. In ingestion of the food, a pair-feeding was conducted and body weight was measured every day.
Two molecules of palmitic acid and one molecule of 2-AG incorporated into epidermal cells of small intestine are reconstructed to a triglyceride(s) (in that case, although there is a possibility of bonding of other inherent fatty acids existing in the epidermal cells of the small intestine to 1,3-positions, arachidonic acid bonded to 2-position is retained), incorporated into chylomicron, transferred to peripheral tissues together with secretion of lymph and blood flow and finally incorporated into liver.

Male rats of SD strain [2] = test: Ingestion of experimental food with 10% structured lipid for two weeks: body weight, liver weight, serum lipid concentration (Example 5); settings: 10% structured lipid in experimental food, 2 weeks
Source text: as §1, §2

[3] = tested on: target gene of PPAR of jejunum; test: Influence of structured lipid on expression of target gene of PPAR of jejunum (Example 5); settings: rats, 10% structured lipid food, compared with PPP food control group
Source text: as §1, §2
Influence of structured lipid on expression of target gene of PPAR of jejunum is shown (FIG. 4). From PPA, each one molecule of palmitic acid and arachidonic acid is dissociated and absorbed by the action of pancreatic lipase specific to 1,3-positions and arachidonic acid having a particularly strong PPAR ligand activity acts as a PPARα ligand in small intestine and, therefore, expressed amount of target gene of PPAR increased in a group of 10% PPA food as compared with a PPP food group which is a control group. […]

CCCCC/C=C\C/C=C\C/C=C\C/C=C\CCCC(=O)OC(COC(=O)CCCCCCC)COC(=O)CCCCCCC [8A8, 1,3-dioctanoyl-2-arachidonoyl glyceride]
Serum Total Cholesterol Concn (Male rats of SD strain [1]): 85.6 ± 2.5^b μmol/dl | Serum Triglyceride(s) Concn (Male rats of SD strain [1]): 63.3 ± 4.1^a μmol/dl

CCCCCCCCCCCCCCCC(=O)OC(COC(=O)CCCCCCC)COC(=O)CCCCCCC [8P8, 1,3-capryloyl-2-palmitoyl-glyceride, reference compound]
Serum Total Cholesterol Concn (Male rats of SD strain [1]): 99.7 ± 4.2^b μmol/dl | Serum Triglyceride(s) Concn (Male rats of SD strain [1]): 101.8 ± 5.3^b μmol/dl

CCCCC/C=C\C/C=C\C/C=C\C/C=C\CCCC(=O)OCC(COC(=O)CCCCCCC)OC(=O)CCCCCCC (centres unmarked) [88A, 1(3),2-dioctanoyl-3(1)-arachidonoyl glyceride]
Serum Total Cholesterol Concn (Male rats of SD strain [1]): 92.9 ± 2.9^a μmol/dl | Serum Triglyceride(s) Concn (Male rats of SD strain [1]): 83.1 ± 3.6^a μmol/dl

CCCCC/C=C\C/C=C\C/C=C\C/C=C\CCCC(=O)OC(COC(=O)CCCCCCCCCCCCCCC)COC(=O)CCCCCCCCCCCCCCC [PAP, 1,3-dipalmitoyl-2-arachidonoyl glyceride]
Expressed amount of PPARα mRNA of liver (PPARα mRNA of liver): significantly increased | Serum Total Cholesterol Concn (Male rats of SD strain [2]): 178 ± 15.3^ab μmol/dl | Serum Triglyceride(s) Concn (Male rats of SD strain [2]): 174 ± 7.5^b μmol/dl | Serum Total Cholesterol Concn (Male rats of SD strain [1]): 91.7 ± 3.3^a μmol/dl | Serum Triglyceride(s) Concn (Male rats of SD strain [1]): 80.4 ± 3.9^a μmol/dl

CCCCC/C=C\C/C=C\C/C=C\C/C=C\CCCC(=O)OCC(COC(=O)CCCCCCCCCCCCCCC)OC(=O)CCCCCCCCCCCCCCC (centres unmarked) [PPA, 1(3),2-dipalmitoyl-3(1)-arachidonoyl glyceride]
Serum Total Cholesterol Concn (Male rats of SD strain [2]): 150 ± 16.6^b μmol/dl | Serum Triglyceride(s) Concn (Male rats of SD strain [2]): 173 ± 6.6^b μmol/dl | Serum Total Cholesterol Concn (Male rats of SD strain [1]): 92.4 ± 4.9^a μmol/dl | Serum Triglyceride(s) Concn (Male rats of SD strain [1]): 93.1 ± 1.3^a μmol/dl | Expressed amount of target gene of PPAR in jejunum [3]: increased

CCCCCCCCCCCCCCCC(=O)OCC(COC(=O)CCCCCCCCCCCCCCC)OC(=O)CCCCCCCCCCCCCCC [PPP, reference compound]
Serum Total Cholesterol Concn (Male rats of SD strain [2]): 201 ± 9.2^a μmol/dl | Serum Triglyceride(s) Concn (Male rats of SD strain [2]): 316 ± 64.3^b μmol/dl | Serum Total Cholesterol Concn (Male rats of SD strain [1]): 104.3 ± 5.9^b μmol/dl | Serum Triglyceride(s) Concn (Male rats of SD strain [1]): 109.2 ± 6.8^b μmol/dl
